Assay results: patent US10793580B2, “Substituted pyrazoloazepin-8-ones and their use as phosphodiesterase inhibitors” (LEO Pharma A/S, priority 2016, dated 2020)

molecular target: human PDE4D catalytic domain (Homo sapiens (Human), UniProt Q08499); test: PDE4 Assay (TR-FRET, FAM-cAMP cleavage); format: biochemical; details: human PDE4D catalytic domain (UniProt Q08499 [S380-L740]); 50% inhibition of substrate cleavage; read-out: PDE4 IC50 range
In short: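 PDE4D catalytic domain (S380-L740) incubated briefly with unlabelled cAMP plus FAM-cAMP and titrated compound. Reaction stopped with binding buffer holding metal-ion nanoparticles that bind AMP phospho groups and Tb donor, and AMP formation read by TR-FRET. IC50 versus controls, reported as ranges (nM).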

Sequence of human PDE4D catalytic domain (Q08499 380-740): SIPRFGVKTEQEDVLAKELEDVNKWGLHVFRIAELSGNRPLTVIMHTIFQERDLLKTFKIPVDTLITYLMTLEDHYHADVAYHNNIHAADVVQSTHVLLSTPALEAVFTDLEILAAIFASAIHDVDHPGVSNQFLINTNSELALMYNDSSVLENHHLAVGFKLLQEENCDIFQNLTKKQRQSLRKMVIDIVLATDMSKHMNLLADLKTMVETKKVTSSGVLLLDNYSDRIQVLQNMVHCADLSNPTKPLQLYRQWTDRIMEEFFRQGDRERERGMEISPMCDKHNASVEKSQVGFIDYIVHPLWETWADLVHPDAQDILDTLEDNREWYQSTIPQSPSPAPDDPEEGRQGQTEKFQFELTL

Row | Structure (SMILES) | IC50
1 | CCn1nc(CCCOC(=O)c2cncs2)c2c1C(=O)NCC1(CCOCC1)C2 [Example 245, 3-(1-ethyl-8-oxo-spiro[6,7-dihydro-4H-pyrazolo[3,4-c]azepine-5,4′-tetrahydropyran]-3-yl)propyl thiazole-5-carboxylate] | < 100 nM
2 | CCn1nc(CCCOC(=O)c2ccc(Cl)c(C(F)(F)F)c2)c2c1C(=O)NCC1(CCOCC1)C2 [Example 89, 3-(1-ethyl-8-oxo-spiro[6,7-dihydro-4H-pyrazolo[3,4-c]azepine-5,4′-tetrahydro-pyran]-3-yl)propyl 4-chloro-3-(trifluoromethyl)benzoate] | < 100 nM
3 | CCn1nc(CCCCOC(=O)c2ccc(OC)cc2)c2c1C(=O)NCC1(CCOCC1)C2 [Example 125, 4-(1-ethyl-8-oxo-spiro[6,7-dihydro-4H-pyrazolo[3,4-c]azepine-5,4′-tetrahydropyran]-3-yl)butyl 4-methoxybenzoate] | < 100 nM
4 | CCn1nc(CCCOC(=O)c2ccc(F)cc2C)c2c1C(=O)NCC1(CCOCC1)C2 [Example 19, 3-(1-ethyl-8-oxo-spiro[6,7-dihydro-4H-pyrazolo[3,4-c]azepine-5,4′-tetrahydropyran]-3-yl)propyl 4-fluoro-2-methyl-benzoate] | < 100 nM
5 | CCc1nc(C(=O)OCCCc2nn(CC)c3c2CC2(CCOCC2)CNC3=O)cs1 [Example 260, 3-(1-ethyl-8-oxo-spiro[6,7-dihydro-4H-pyrazolo[3,4-c]azepine-5,4′-tetrahydropyran]-3-yl)propyl 2-ethylthiazole-4-carboxylate] | < 100 nM
6 | CCn1nc(CCCOC(=O)c2cc(F)ccc2C)c2c1C(=O)NCC1(CCOCC1)C2 [Example 20, 3-(1-ethyl-8-oxo-spiro[6,7-dihydro-4H-pyrazolo[3,4-c]azepine-5,4′-tetrahydropyran]-3-yl)propyl 5-fluoro-2-methyl-benzoate] | < 100 nM
7 | CCn1nc(CC(C)(C)COC(=O)c2ccccc2C)c2c1C(=O)NCC1(CCOCC1)C2 [Example 189, [3-(1-ethyl-8-oxo-spiro[6,7-dihydro-4H-pyrazolo[3,4-c]azepine-5,4′-tetrahydropyran]-3-yl)-2,2-dimethyl-propyl] 2-methylbenzoate] | < 100 nM
8 | CCn1nc(CCCOC(=O)c2ccc(Cl)cc2C)c2c1C(=O)NCC1(CCOCC1)C2 [Example 43, 3-(1-ethyl-8-oxo-spiro[6,7-dihydro-4H-pyrazolo[3,4-c]azepine-5,4′-tetrahydropyran]-3-yl)propyl 4-chloro-2-methyl-benzoate] | < 100 nM
9 | CCn1nc(CCCOC(=O)c2cc(F)cc(C#N)c2)c2c1C(=O)NCC1(CCOCC1)C2 [Example 29, 3-(1-ethyl-8-oxo-spiro[6,7-dihydro-4H-pyrazolo[3,4-c]azepine-5,4′-tetrahydropyran]-3-yl)propyl 3-cyano-5-fluoro-benzoate] | < 100 nM
10 | CCn1nc(C[C@@H](C)COC(=O)c2cccc(S(=O)(=O)N3CCN(C(C)=O)CC3)c2)c2c1C(=O)NCC1(CCOCC1)C2 [Example 166, [(2R)-3-(1-ethyl-8-oxo-spiro[6,7-dihydro-4H-pyrazolo[3,4-c]azepine-5,4′-tetrahydropyran]-3-yl)-2-methyl-propyl] 3-(4-acetylpiperazin-1-yl)sulfonylbenzoate] | < 100 nM
11 | CCn1nc(CC(C)(C)COC(=O)c2cccc(C(=O)N3CCN(C(C)=O)CC3)c2)c2c1C(=O)NCC1(CCOCC1)C2 [Example 234, [3-(1-ethyl-8-oxo-spiro[6,7-dihydro-4H-pyrazolo[3,4-c]azepine-5,4′-tetrahydropyran]-3-yl)-2,2-dimethyl-propyl] 3-(4-acetylpiperazine-1-carbonyl)benzoate] | < 100 nM
12 | CCn1nc(CCOC(=O)C2CCCC2)c2c1C(=O)NCC1(CCOCC1)C2 [Example 134, 2-(1-ethyl-8-oxo-spiro-[6,7-dihydro-4H-pyrazolo-[3,4-c]azepine-5,4′-tetra-hydropyran]-3-yl)ethyl cyclopentanecarboxylate] | < 100 nM
